Molecular target: T1, SugR (Corynebacterium glutamicum, UniProt Q8NP85)
T1 construct: gene Cgl1931; expressed in E. coli ER2566 from pTYB1 (pLGI1, 777 bp sugR without stop codon) as C-terminal intein fusion, tag self-cleaved, no extra residues
T1 sequence (Q8NP85 1-259): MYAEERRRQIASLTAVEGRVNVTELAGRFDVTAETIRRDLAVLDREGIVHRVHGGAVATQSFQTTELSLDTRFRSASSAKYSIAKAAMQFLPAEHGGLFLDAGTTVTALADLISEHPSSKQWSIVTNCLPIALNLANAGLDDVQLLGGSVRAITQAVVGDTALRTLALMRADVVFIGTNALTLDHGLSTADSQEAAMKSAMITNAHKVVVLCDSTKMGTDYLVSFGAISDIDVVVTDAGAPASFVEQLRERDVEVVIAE
Experiment: EMSA, release of SugR from Cy3-labelled DNA fragment I2
Assay type: binding
Details: negative effector; 15 pmol SugR, 0.05 pmol DNA I2 (ptsI-cg2118 intergenic region), 1 mM MgCl2, pH 7.5, RT; threshold of effect, not an IC50

## O=P(O)(O)OC[C@H]1OC(O)[C@H](O)[C@@H](O)[C@@H]1O (stereo partly shown) [G-6-P, glucose-6-phosphate]
  concentration needed for significant effect: > 10 mM
